According to patent US8957064B2, “Fused pyrimidines” (Bayer Intellectual Property GmbH, priority 2009, dated 2015):
pIC50: −log10 of the molar value.

Experiments:
[1] = biological target: His-tagged human recombinant kinase full-length Akt1 (Homo sapiens (Human), UniProt P31749); test: Akt1 kinase assay (Akt1 TR-FRET assay, Biological Assay 1.0); type: biochemical; settings: 10 μM ATP, 1 μM biotinylated peptide substrate, 60 min at 22° C.
From the text: Biological Assay 1.0: Akt1 Kinase Assay
Akt1 inhibitory activity of compounds of the present invention may be quantified employing the Akt1 TR-FRET assay as described in the following paragraphs. His-tagged human recombinant kinase full-length Akt1 expressed in insect cells was purchased form Invitrogen (part number PV 3599). As substrate for the kinase reaction the biotinylated peptide biotin-Ahx-KKLNRTLSFAEPG (C-terminus in amide form) was used which can be purchased e.g. from the company Biosynthan GmbH (Berlin-Buch, Germany).
(§1) For the assay 50 nl of a 100 fold concentrated solution of the test compound in DMSO was pipetted into a black low volume 384 well microtiter plate (Greiner Bio-One, Frickenhausen, Germany), 2 μl of a solution of Akt1 in assay buffer [50 mM TRIS/HCl pH 7.5, 5 mM MgCl2, 1 mM dithiothreitol, 0.02% (v/v) Triton X-100 (Sigma)] were added and the mixture was incubated for 15 min at 22° C. to allow prebinding of the test compounds to the enzyme before the start of the kinase reaction. Then the kinase reaction was started by the addition of 3 μl of a solution of adenosine-tri-phosphate (ATP, 16.7 μM=>final conc. in the 5 μl assay volume is 10 μM) and substrate (1.67 μM=>final conc. in the 5 μl assay volume is 1 μM) in assay buffer and the resulting mixture was incubated for a reaction time of 60 min at 22° C. The concentration of Akt1 in the assay was adjusted depending of the activity of the enzyme lot and was chosen appropriate to have the assay in the linear range, typical enzyme concentrations were in the range of about 0.05 ng/μl (final conc. in the 5 μl assay volume).
(§2) The reaction was stopped by the addition of 5 μl of a solution of HTRF detection reagents (200 nM streptavidine-XL665 [Cisbio] and 1.5 nM anti-phosho-Serine antibody [Millipore, cat. #35-001] and 0.75 nM LANCE Eu-W 1024 labeled anti-mouse IgG antibody [Perkin Elmer]) in an aqueous EDTA-solution (100 mM EDTA, 0.1% (w/v) bovine serum albumin in 50 mM HEPES/NaOH pH 7.5).
(§3) The resulting mixture was incubated 1 h at 22° C. to allow the binding of the biotinylated phosphorylated peptide to the streptavidine-XL665 and the antibodies. Subsequently the amount of phosphorylated substrate was evaluated by measurement of the resonance energy transfer from the anti-mouse-IgG-Eu-Chelate to the streptavidine-XL665. Therefore, the fluorescence emissions at 620 nm and 665 nm after excitation at 350 nm was measured in a HTRF reader, e.g. a Rubystar (BMG Labtechnologies, Offenburg, Germany) or a Viewlux (Perkin-Elmer). The ratio of the emissions at 665 nm and at […] was taken as the measure for the amount of phosphorylated substrate. The data were normalised (enzyme reaction without inhibitor=0% inhibition, all other assay components but no enzyme=100% inhibition).

[2] = biological target: His-tagged human recombinant kinase full-length Akt2 activated by PDK1 (Homo sapiens (Human), UniProt P31751); test: Akt2 kinase assay (Akt2 TR-FRET assay, Biological Assay 2.0); type: biochemical; settings: 10 μM ATP, 1 μM biotinylated peptide substrate, 60 min at 22° C.
His-tagged human recombinant kinase full-length Akt2 activated by PDK1, sequence (P31751 whole entry): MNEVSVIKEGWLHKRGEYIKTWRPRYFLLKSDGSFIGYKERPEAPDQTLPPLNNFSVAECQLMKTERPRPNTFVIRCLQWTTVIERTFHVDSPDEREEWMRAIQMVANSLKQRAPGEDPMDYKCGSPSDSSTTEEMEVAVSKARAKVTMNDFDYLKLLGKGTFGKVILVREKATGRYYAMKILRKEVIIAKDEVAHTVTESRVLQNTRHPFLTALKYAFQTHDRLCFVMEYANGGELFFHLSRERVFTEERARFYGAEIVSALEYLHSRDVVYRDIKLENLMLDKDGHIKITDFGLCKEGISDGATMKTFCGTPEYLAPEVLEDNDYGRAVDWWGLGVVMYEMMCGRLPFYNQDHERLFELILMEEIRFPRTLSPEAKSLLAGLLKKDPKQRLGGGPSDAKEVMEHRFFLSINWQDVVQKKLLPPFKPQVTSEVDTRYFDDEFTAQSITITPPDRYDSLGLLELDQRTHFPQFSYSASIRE
From the text: Biological Assay 2.0: Akt2 Kinase Assay
Akt2 inhibitory activity of compounds of the present invention was quantified employing the Akt2 TR-FRET assay as described in the following paragraphs.
His-tagged human recombinant kinase full-length Akt2 expressed in insect cells and activated by PDK1 was purchased form Invitrogen (part number PV 3975). As substrate for the kinase reaction the biotinylated peptide biotin-Ahx-KKLNRTLSFAEPG (C-terminus in amide form) was used which can be purchased e.g. from the company Biosynthan GmbH (Berlin-Buch, Germany).
as §1, with “Akt2” for “Akt1”, “0.2” for “0.05”
as §2
as §3, with “TR-FRET” for “HTRF”

His-tagged human recombinant kinase full-length Akt1, sequence (P31749 whole entry): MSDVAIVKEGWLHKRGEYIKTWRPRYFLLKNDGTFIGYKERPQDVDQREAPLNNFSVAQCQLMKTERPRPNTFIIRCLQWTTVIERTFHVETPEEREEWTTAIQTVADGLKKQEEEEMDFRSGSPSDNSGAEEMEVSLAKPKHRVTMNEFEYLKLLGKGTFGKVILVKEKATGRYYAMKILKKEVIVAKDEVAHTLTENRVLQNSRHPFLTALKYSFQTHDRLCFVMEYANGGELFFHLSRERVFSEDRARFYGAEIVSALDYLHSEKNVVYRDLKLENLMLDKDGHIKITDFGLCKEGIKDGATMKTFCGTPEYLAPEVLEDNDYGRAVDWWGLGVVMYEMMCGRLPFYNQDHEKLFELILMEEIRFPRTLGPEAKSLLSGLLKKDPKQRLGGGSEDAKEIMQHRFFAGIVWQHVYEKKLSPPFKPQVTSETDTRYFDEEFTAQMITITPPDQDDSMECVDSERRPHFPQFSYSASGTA

Row | Structure (SMILES) | pIC50 [1] | pIC50 [2]
1 | Cc1cccc(-c2nc(C3CN(Cc4ccc(-c5nc6nc(C7CC7)nn6cc5-c5ccccc5)cc4)C3)n[nH]2)n1 [Example 41.0, 2-cyclopropyl-5-(4-{3-[5-(6-methylpyridine-2-yl)-1H-[1,2,4]triazole-3-yl]-azetidine-1-ylmethyl}-phenyl)-6-phenyl-[1,2,4]triazolo[1,5-a]pyrimidine] | 8.00 | 8.00
2 | CCc1cnn2cc(-c3ccccc3)c(-c3ccc(CN4CC(c5n[nH]c(-c6cccc(C)n6)n5)C4)cc3)nc12 [Example 42.0, 3-ethyl-5-(4-{3-[5-(6-methyl-pyridin-2-yl)-1H-[1,2,4]triazol-3-yl]-azetidin-1-ylmethyl}-phenyl)-6-phenyl-pyrazolo[1,5-a]pyrimidine] | 8.30 | 7.72
3 | CC(C)Nc1nc2nc(-c3ccc(CN4CC(c5n[nH]c(-c6ccccn6)n5)C4)cc3)c(-c3ccccc3)cn2n1 [Example 43.1, isopropyl-(6-phenyl-5-{4-[3-(5-pyridin-2-yl-1H-[1,2,4]triazol-3-yl)-azetidin-1-ylmethyl]-phenyl}-[1,2,4]triazolo[1,5-a]pyrimidin-2-yl)-amine] | 7.66 | 7.96
4 | COC(=O)c1cnn2cc(-c3c(F)cccc3F)c(-c3ccc(CN4CCC(c5n[nH]c(-c6cccc(C)n6)n5)CC4)cc3)nc12 [Example 48.0, 6-(2,6-difluorophenyl)-5-(4-{4-[5-(6-methylpyridine-2-yl)-1H-[1,2,4]triazole-3-yl]-piperidine-1-ylmethyl}-phenyl)-pyrazolo[1,5-a]pyrimidine-3-carboxylic acid methyl ester] | 8.15 | 7.09
5 | COC(=O)c1cnn2cc(-c3c(F)cccc3F)c(-c3ccc(CN4CCC(c5n[nH]c(-c6ccccn6)n5)CC4)cc3)nc12 [Example 48.1, 6-(2,6-difluorophenyl)-5-(4-{4-[5-(pyridine-2-yl)-1H-[1,2,4]triazole-3-yl]-piperidine-1-ylmethyl}-phenyl)-pyrazolo[1,5-a]pyrimidine-3-carboxylic acid methyl ester] | 8.30 | 6.69
6 | Cc1cccc(-c2nc(C3CCN(Cc4ccc(-c5nc6nc(C)nn6cc5-c5cccc(F)c5)cc4)CC3)n[nH]2)n1 [Example 49.0, 6-(3-fluorophenyl)-2-methyl-5-(4-{4-[5-(6-methylpyridine-2-yl)-1H-[1,2,4]triazole-3-yl]-piperidine-1-ylmethyl}-phenyl)-[1,2,4]triazolo[1,5-a]pyrimidine] | 7.89 | 7.43
7 | Cc1nc2nc(-c3ccc(CN4CCC(c5n[nH]c(-c6cc(Cl)ccn6)n5)CC4)cc3)c(-c3ccc(F)cc3F)cn2n1 [Example 50.0, 5-(4-{4-[5-(4-chloropyridine-2-yl)-1H-[1,2,4]triazole-3-yl]-piperidine-1-ylmethyl}-phenyl) 6-(2,4-difluorophenyl)-2-methyl-[1,2,4]triazolo[1,5-a]pyrimidine] | 7.66 | 7.01
8 | Cc1cccc(-c2nc(C3CCN(Cc4ccc(-c5nc6nc(C)nn6cc5-c5ccc(F)cc5F)cc4)CC3)n[nH]2)n1 [Example 50.1, 6-(2,4-difluorophenyl)-2-methyl-5-(4-{4-[5-(6-methylpyridine-2-yl)-1H-[1,2,4]triazole-3-yl]-piperidine-1-ylmethyl}-phenyl)-[1,2,4]triazolo[1,5-a]pyrimidine] | 7.21 | 6.97
9 | Cc1nc2nc(-c3ccc(CN4CCC(c5n[nH]c(-c6cnccn6)n5)CC4)cc3)c(-c3ccc(F)cc3F)cn2n1 [Example 50.2, 6-(2,4-difluorophenyl)-2-methyl-5-[4-{4-(5-pyrazine-2-yl-1H-[1,2,4]triazole-3-yl)-piperidine-1-ylmethyl]-phenyl}-[1,2,4]triazolo[1,5-a]pyrimidine] | 6.45 | 5.96
10 | Cc1cccc(-c2nc(C3CCN(Cc4ccc(-c5nc6nc(C7CC7)nn6cc5-c5ccc(F)cc5)cc4)CC3)n[nH]2)n1 [Example 51.0, 2-cyclopropyl-6-(4-fluorophenyl)-5-(4-{4-[5-(6-methylpyridine-2-yl)-1H-[1,2,4]triazole-3-yl]-piperidine-1-ylmethyl}-phenyl)-[1,2,4]triazolo[1,5-a]pyrimidine] | 7.39 | 7.34

Second part, the compound after the results:

Row | pIC50 [1] | pIC50 [2] | Structure (SMILES)
11 | 7.55 | 6.89 | Cc1nc2nc(-c3ccc(CN4CCC(c5n[nH]c(-c6ccccn6)n5)CC4)cc3)c(-c3cccc(F)c3)cn2n1 [Example 49.1, 6-(3-fluorophenyl)-2-methyl-5-{4-[4-(5-pyridine-2-yl)-1H-[1,2,4]triazole-3-yl)-piperidine-1-ylmethyl]-phenyl]-[1,2,4]triazolo[1,5-a]pyrimidine formiate]
12 | 7.49 | 7.16 | Fc1ccc(-c2cn3nc(C4CC4)nc3nc2-c2ccc(CN3CCC(c4n[nH]c(-c5ccccn5)n4)CC3)cc2)cc1 [Example 51.1, 2-cyclopropyl-6-(4-fluorophenyl)-5-{4-[4-(5-pyridine-2-yl-1H-[1,2,4]triazole-3-yl)-piperidine-1-ylmethyl]-phenyl}-[1,2,4]triazolo[1,5-a]pyrimidine]
13 | 7.25 | 6.78 | Fc1ccc(-c2cn3nc(C4CC4)nc3nc2-c2ccc(CN3CCC(c4n[nH]c(-c5cc(Cl)ccn5)n4)CC3)cc2)cc1 [Example 51.2, 5-(4-{4-[5-(4-chloropyridine-2-yl)-1H-[1,2,4]triazole-3-yl]-piperidine-1-ylmethyl}-phenyl)-2-cyclopropyl-6-(4-fluorophenyl)-[1,2,4]triazolo[1,5-a]pyrimidine]
14 | 8.05 | 7.77 | Cc1cccc(-c2nc(C3CCN(Cc4ccc(-c5nc6nccn6cc5-c5ccc(F)cc5)cc4)CC3)n[nH]2)n1 [Example 52.0, 6-(4-fluorophenyl)-7-(4-{4-[5-(6-methylpyridine-2-yl)-1H-[1,2,4]triazole-3-yl]-piperidine-1-ylmethyl}-phenyl)-imidazo[1,2-a]pyrimidine formiate]
15 | 8.10 | 7.49 | Fc1ccc(-c2cn3ccnc3nc2-c2ccc(CN3CCC(c4n[nH]c(-c5ccccn5)n4)CC3)cc2)cc1 [Example 52.1, 6-(4-fluorophenyl)-7-{4-[4-(5-pyridine-2-yl)-1H-[1,2,4]triazole-3-yl)-piperidine-1-ylmethyl)-phenyl}-imidazo[1,2-a]pyrimidine formiate]
